Like-named read-outs stand apart in the source and are kept apart here.
Assays:
[1] = molecular target: protein kinases (human kinome) (Homo sapiens, UniProt P30291); assay type: cell-based; conditions: for logFC of WEE1: WEE1 P30291-1
[2] = system: protein kinases (human kinome); assay type: cell-based; conditions: for logFC RPS6KA1: RPS6KA1 (Q15418-2); for logFC PDK3: PDK3 (Q15120-2)
[3] = experiment wp076, degrader vs DMSO
[4] = Accession O60566-3, experiment wp076, direction down
[5] = BUB1B (O60566-3), experiment wp076
[6] = CDK9 (P50750-2) protein abundance, degrader vs DMSO, down
[7] = CLK1 P49759-3, experiment wp076
[8] = CSNK1A1 (P48729-2), experiment wp076
[9] = AURKB Q96GD4-5, experiment wp146
[10] = CLK1 P49759-3, experiment wp146
[11] = Experiment wp146, direction down

Sequence of protein kinases (human kinome) (Homo sapiens, UniProt P30291) (P30291 whole entry): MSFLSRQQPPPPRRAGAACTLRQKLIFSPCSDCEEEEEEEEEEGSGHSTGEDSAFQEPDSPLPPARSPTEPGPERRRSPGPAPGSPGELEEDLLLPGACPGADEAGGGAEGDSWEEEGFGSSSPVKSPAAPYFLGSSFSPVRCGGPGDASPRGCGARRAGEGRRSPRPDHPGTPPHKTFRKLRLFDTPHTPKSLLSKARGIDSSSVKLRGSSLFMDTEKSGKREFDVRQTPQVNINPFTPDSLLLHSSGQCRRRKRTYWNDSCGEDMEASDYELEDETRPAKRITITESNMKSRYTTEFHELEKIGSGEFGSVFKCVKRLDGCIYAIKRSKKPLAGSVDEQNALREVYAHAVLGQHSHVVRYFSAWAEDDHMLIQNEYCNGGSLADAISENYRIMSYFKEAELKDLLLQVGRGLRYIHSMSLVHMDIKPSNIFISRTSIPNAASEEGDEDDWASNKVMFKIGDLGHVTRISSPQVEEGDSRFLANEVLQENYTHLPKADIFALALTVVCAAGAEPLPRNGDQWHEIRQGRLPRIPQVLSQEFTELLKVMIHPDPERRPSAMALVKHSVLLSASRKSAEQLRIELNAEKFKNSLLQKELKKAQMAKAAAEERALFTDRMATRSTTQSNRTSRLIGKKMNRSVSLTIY

## O=C1CCC(N2C(=O)c3cccc(NCCCCCCCCN4CCC(NC(=O)c5[nH]ncc5NC(=O)c5c(Cl)cccc5Cl)CC4)c3C2=O)C(=O)N1 (stereo not drawn) [MFH.5.126.1]
[1]; [3]
  logFC of WEE1: −0.9048
[1]; experiment wp076
  logFC WEE1 (P30291-1): −0.9048
[2]; [4]
  logFC BUB1B: −0.7532
[2]; Accession P48730-2, experiment wp076, direction down
  logFC CSNK1D: −0.9201
[2]; Accession P49841-2, experiment wp078, direction down
  logFC GSK3B: −0.9629
[2]; [5]
  logFC BUB1B: −0.7532
[2]; [6]
  logFC: −0.7008
[2]; [7]
  logFC: −1.494
  logFC CLK1: −1.494
[2]; [8]
  logFC: −0.4586
[2]; CSNK1D P48730-2, experiment wp076
  logFC CSNK1D: −0.9201
[2]; Experiment wp076, direction of change down
  logFC DAPK1 (P53355-3): −0.4488
[2]; GSK3B P49841-2, experiment wp076
  logFC GSK3B: −0.9629
[2]; experiment wp076
  logFC CDK9 (P50750-2): −0.7008
  logFC of CSNK1A1 (P48729-2): −0.4586
[2]; protein DAPK1 (P53355-3), experiment wp076, down
  logFC DAPK1: −0.4488

## Cc1cc(Nc2ncc(Br)c(Nc3cccc(F)c3C(N)=O)n2)ccc1S(=O)(=O)NCCOCCOCCOCCOCCNc1cccc2c1C(=O)N(C1CCC(=O)NC1=O)C2=O (stereo not drawn) [TMX.02.174]
[1]; experiment wp146
  logFC of WEE1: −1.142
  logFC WEE1 (P30291-1): −1.142
[2]; [9]
  logFC: −1.578
  logFC AURKB: −1.578
[2]; Accession P49841-2, experiment wp146, direction down
  logFC GSK3B: −0.6472
[2]; [6]
  logFC: −1.666
[2]; [10]
  logFC: −0.4606
  logFC CLK1: −0.4606
[2]; [11]
  logFC MAPK8 (P45983-4): −0.7761
  logFC PRKAA1 (Q13131-2): −1.622
[2]; GSK3B P49841-2, experiment wp146
  logFC GSK3B: −0.6472
[2]; MAPK8 P45983-4, experiment wp146
  logFC MAPK8: −0.7761
[2]; experiment wp146
  logFC RPS6KA1: −0.6638
  logFC CDK9 (P50750-2): −1.666
  logFC CDK16 (Q00536-2): −1.176
  logFC PRKAA1 (Q13131-2): −1.622
  logFC RPS6KA1 (Q15418-2): −0.6638
[2]; experiment wp146, direction of change down
  logFC NEK1 (Q96PY6-3): −0.3871
[2]; protein NEK1 (Q96PY6-3), experiment wp146, down
  logFC NEK1: −0.3871

## CCc1cnn2c(N(Cc3ccc(N)nc3)C(=O)CCOCCOCCOCCNC(=O)CNc3cccc4c3C(=O)N(C3CCC(=O)NC3=O)C4=O)cc(N3CCCC[C@H]3CCO)nc12 (stereo partly drawn) [MFH.5.115.2]
[1]; [3]
  logFC of WEE1: −0.7664
[1]; experiment wp076
  logFC WEE1 (P30291-1): −0.7664
[2]; [4]
  logFC BUB1B: −0.5013
[2]; [5]
  logFC BUB1B: −0.5013
[2]; [8]
  logFC: −0.349
[2]; experiment wp076
  logFC of CSNK1A1 (P48729-2): −0.349

## CC(C)S(=O)(=O)c1ccccc1Nc1nc(Nc2ccc(N3CCN(CCOCCNC(=O)CNc4ccc5c(c4)C(=O)N(C4CCC(=O)NC4=O)C5=O)CC3)cc2)ncc1Cl (stereo not drawn) [SK.3.93]
[1]; experiment wp016
  logFC WEE1 (P30291-1): −1.176
[2]; Accession P12931-2, experiment wp016
  logFC of SRC: −0.3456
[2]; [6]
  logFC: −0.6376
[2]; Experiment wp016, direction down
  logFC PRKAA1 (Q13131-2): −0.4738
[2]; LCK, accession P06239-3, experiment wp016, direction of change down
  logFC LCK: −0.7798
[2]; experiment wp016
  logFC RPS6KA1: −0.3413
  logFC CDK9 (P50750-2): −0.6376
  logFC PRKAA1 (Q13131-2): −0.4738
  logFC RPS6KA1 (Q15418-2): −0.3413
[2]; SRC (P12931-2) protein abundance, degrader vs DMSO, down
  logFC: −0.3456
[2]; experiment wp016, direction of change down
  logFC LCK (P06239-3): −0.7798

## C=CCn1c(=O)c2cnc(Nc3ccc(N4CCN(CCCNc5cccc6c5C(=O)N(C5CCC(=O)NC5=O)C6=O)CC4)cc3)nc2n1-c1cccc(C(C)(C)O)n1 (stereo not drawn) [ZNL.02.096]
[1]; experiment wp081
  logFC of WEE1: −1.97
  logFC WEE1 (P30291-1): −1.97
[1]; experiment wp106, 2 hr
  logFC of WEE1: −2.525
  logFC WEE1 (P30291-1): −2.525
[1]; experiment wp106, 4 hr
  logFC of WEE1: −2.764
  logFC WEE1 (P30291-1): −2.764
[1]; experiment wp118
  logFC of WEE1: −2.75
  logFC WEE1 (P30291-1): −2.75
[1]; experiment wp056
  logFC WEE1 (P30291-1): −2.409
[2]; GK P32189-3, experiment wp056
  logFC: −0.3867
[2]; experiment wp056
  logFC PDK3: −0.3528
  logFC PDK3 (Q15120-2): −0.3528

## Nc1ncc(-c2ccc(S(=O)(=O)N(CCCNC(=O)CCOCCOCCOCCOCCOCCNc3cccc4c3C(=O)N(C3CCC(=O)NC3=O)C4=O)C3CC3)cc2)cc1-c1ccc2c(c1)CCNC2=O (stereo not drawn) [WH.10417.099]
[2]; Accession P48730-2, experiment wp056, direction down
  logFC CSNK1D: −1.455
[2]; Accession P48730-2, experiment wp103, direction down
  logFC CSNK1D: −1.301
[2]; Accession P48730-2, experiment wp107, direction down
  logFC CSNK1D: −1.248
[2]; Accession P48730-2, experiment wp172, direction down
  logFC CSNK1D: −0.6401
[2]; Accession P49841-2, experiment wp056, direction down
  logFC GSK3B: −1.294
[2]; Accession P49841-2, experiment wp103, direction down
  logFC GSK3B: −1.442
[2]; Accession P49841-2, experiment wp105, direction down
  logFC GSK3B: −0.8403
[2]; Accession P49841-2, experiment wp107, direction down
  logFC GSK3B: −1.446
[2]; CSNK1A1 (P48729-2), experiment wp107
  logFC: −2.428
[2]; CSNK1D P48730-2, experiment wp056
  logFC CSNK1D: −1.455
[2]; CSNK1D P48730-2, experiment wp103
  logFC CSNK1D: −1.301
[2]; CSNK1D P48730-2, experiment wp107
  logFC CSNK1D: −1.248
[2]; CSNK1D P48730-2, experiment wp172
  logFC CSNK1D: −0.6401
[2]; Experiment wp107
  logFC of CSNK1A1 (P48729-2): −2.428
[2]; GSK3B P49841-2, experiment wp056
  logFC GSK3B: −1.294
[2]; GSK3B P49841-2, experiment wp103
  logFC GSK3B: −1.442
[2]; GSK3B P49841-2, experiment wp105
  logFC GSK3B: −0.8403
[2]; GSK3B P49841-2, experiment wp107
  logFC GSK3B: −1.446

## Cc1ccc(C(=O)Nc2ccc(CN3CCN(CCCOCCOCCOCCNC(=O)COc4cccc5c4C(=O)N(C4CCC(=O)NC4=O)C5=O)CC3)c(C(F)(F)F)c2)cc1C#Cc1cnc2cccnn12 (stereo not drawn) [SB1-G-187, N-(4-((4-(1-((2-(2,6-dioxopiperidin-3-yl)-1,3-dioxoisoindolin-4-yl)oxy)-2-oxo-6,9,12-trioxa-3-azapentadecan-15-yl)piperazin-1-yl)methyl)-3 (trifluoromethyl)phenyl)-3-(imidazo[1,2-b]pyridazin-3-ylethynyl)-4-methylbenzamide]
[2]; as stated for the structure in the embodiments
  kinases the bifunctional compound degrades: ABL1, ABL2, BLK, CDK14, CDK17, CDK5. CDK6, COQ8A, EPHA1, EPHA2, FER, FYN, GAK, IRAK1, LCK, LYN, MAP3K1, MAP3K20, MAP3K7, MAP4K2, MAP4K5, MAPK14, PDK1, PDK2, PDK3, RIPK1, RIPK2, SRC, STK10, TAOK3, and YES1
[2]; kinases significantly downregulated vs DMSO (fold change cutoff −1.25, P-value<0.01), ≤8 h, 0.1-5 μM degrader, 7 cell lines
  Kinase hits: ABL1, ABL2, BLK, CDK14, CDK17, CDK5, CDK6, COQ8A, EPHA1, EPHA2, FER, FYN, GAK, IRAK1, LCK, LYN, MAP3K1, MAP3K20, MAP3K7, MAP4K2, MAP4K5, MAPK14, PDK1, PDK2, PDK3, RIPK1, RIPK2, SRC, STK10, TAOK3, YES1,
[2]; number of degraded kinases per library compound
  Total no. kinase hits: 31

## Cc1cnc(Nc2ccc(N3CCN(CCOCCOCCNC(=O)COc4cccc5c4C(=O)N(C4CCC(=O)NC4=O)C5=O)CC3)cc2)nc1Nc1cccc(S(=O)(=O)NC(C)(C)C)c1 (stereo not drawn) [JWG.118]
[2]; GK P32189-3, experiment wp071
  logFC: −0.4317

## CC(=O)c1c(C)c2cnc(Nc3ccc(N4CCN(CCOCCOCCOCCNC(=O)COc5cccc6c5C(=O)N(C5CCC(=O)NC5=O)C6=O)CC4)cn3)nc2n(C2CCCC2)c1=O (stereo not drawn) [BSJ.03.123]
[1]; experiment wp084
  logFC of WEE1: −0.3883
  logFC WEE1 (P30291-1): −0.3883
[2]; ACAD10 (Q6JQN1-5), experiment wp084
  logFC: −0.5275
[2]; GK P32189-3, experiment wp084
  logFC: −0.4109
[2]; experiment wp084
  logFC PDK3: −0.5908
  logFC PDK3 (Q15120-2): −0.5908
[2]; protein HK1 (P19367-3), experiment wp084, down
  logFC HK1: −0.3484

## CNC(=O)c1ccccc1Nc1cc(Nc2ccc(N3CCN(CCOCCOCCNC(=O)CNc4cccc5c4C(=O)N(C4CCC(=O)NC4=O)C5=O)CC3)cc2OC)ncc1C(F)(F)F (stereo not drawn) [MFH.5.103.1]
[1]; experiment wp076
  logFC WEE1 (P30291-1): −0.9694
[2]; experiment wp076
  logFC RPS6KA1: −1.583
  logFC RPS6KA1 (Q15418-2): −1.583
